Tests used:
[1] = Heating of form A: variable temperature powder X-ray diffraction (VT-PXRD) and TGA; format: physicochemical
[2] = Dehydration/desolvation temperatures determined by DSC; format: physicochemical; settings: DSC analysis at 5° C./min from 30-300° C.
Description: Dehydration/desolvation temperatures were determined by DSC with a heating rate of 5° C./min.

SMILES: CCC1OC(=O)C(C)C(O[C@H]2C[C@@](C)(OC)[C@@H](O)C(C)O2)C(C)[C@@H](OC2OC(C)CC(N(C)C)[C@H]2O)C(C)(O)C[C@@H](C)CN(C)[C@H](C)[C@@H](O)[C@]1(C)O (stereo in doubt) [Form L]
- stability of form when cooled to ambient temperature ([1]; cooled to ambient temperature after heating form A to about 90° C.): rapidly reverts to form A

SMILES: CC[C@H]1OC(=O)[C@H](C)[C@@H](O[C@H]2C[C@@](C)(OC)[C@@H](O)[C@H](C)O2)[C@H](C)[C@@H](O[C@@H]2O[C@H](C)C[C@H](N(C)C)[C@H]2O)[C@](C)(O)C[C@@H](C)CN(C)[C@H](C)[C@@H](O)[C@]1(C)O [Form A, azithromycin dihydrate]
- weight loss by TGA ([1]; at 90° C.): about 2.5 weight %
- temperature of solid-state conversion of form A to form L ([1]; heating, VT-PXRD): about 90 °C

SMILES: CCC1OC(=O)C(C)C(O[C@H]2C[C@@](C)(OC)[C@@H](O)C(C)O2)C(C)[C@@H](OC2OC(C)CC(N(C)C)[C@H]2O)[C@@](C)(O)C[C@@H](C)CN(C)[C@H](C)[C@@H](O)[C@]1(C)O (stereo partly shown) [Form D, azithromycin monohydrate monocyclohexane solvate]
- broad endotherm (decomposition) [2]: 200-280 °C
